Results as given in patent publication US9556135B2, “Amino-dihydrothiazine and amino-dioxido dihydrothiazine compounds as beta-secretase antagonists and methods of use” (Amgen Inc., priority 2012, dated 2017).
Like-named read-outs stand apart in the source and are kept apart here. Each block holds one molecule with its values, some of them ahead of it.

How the values were obtained:
[1] = target: Beta Secretase enzyme (BACE1) (Homo sapiens (Human), UniProt P56817); assay: In vitro enzymatic BACE FRET assay; assay type: biochemical
Experimental: In Vitro Enzymatic BACE FRET (Fluorescence Resonance Energy Transfer) Assay (Enzyme Assay Data in the Example Tables I and II)
The assay buffer used in this screen is 0.05 M acetate, pH 4.2, 10% DMSO final, 100 uM genapol (which is a nonionic detergent, below its Critical Micelle Concentration). […] This assay is effectively started by the addition of FRET substrate (50 nM) and the combination is incubated for one hour. The FRET assay is terminated with by addition of Tris buffer, which raises the pH to neutrality, and the fluorescence is determined. The FRET substrate is a peptide with commercially available fluorophore and quencher, on opposite sides of the BACE cleavage site. Proteolytic cleavage of the FRET substrate releases quenching of fluorescence (excitation […] and […]).

[2] = target: Cathepsin D (Cat D) (Homo sapiens (Human), UniProt P07339); assay: In vitro enzymatic Cathepsin D (Cat D) FRET assay; assay type: biochemical; details: read-out: CatD IC50
Experimental: In Vitro Enzymatic Cathepsin D (Cat D) FRET (Fluorescence Resonance Energy Transfer) Assay Recombinant Cat D was expressed in CHO cells. […] The Cat D enzyme (9 nM) is pre-incubated for one hour with inhibitors, typically in about 1 uL of DMSO according to a serial dilution, is added thereto. […] The FRET assay is terminated with by addition of Tris buffer, which raises the pH to neutrality, and the fluorescence is determined. The FRET substrate is a peptide with commercially available fluorophore and quencher, on opposite sides of the BACE cleavage site. The Cat D substrate peptide sequence is based on sequence #1 of Table 1 from Gulnik et al. […] Where available, the in-vitro Cat D FRET assay data for each of the Examples, conducted by the first procedure, is provided.

[3] = system: Aβ40 in conditioned medium of cells stably expressing Amyloid Precursor Protein (APP); assay: In vitro BACE cell-based assay (HEK cell assay), Aβ40 sandwich ELISA
Experimental: In Vitro BACE Cell-Based Assay
The cell-based assay measures inhibition or reduction of Aβ40 in conditioned medium of test compound treated cells expressing amyloid precursor protein.
Cells stably expressing Amyloid Precursor Protein (APP) were plated at a density of 40K cells/well in 96 well plates (Costar). The cells were cultivated for 24 hours at 37° C. and 5% CO2 in DMEM supplemented with 10% FBS. The test compounds were then added to cells in 10-point dose response concentrations with the starting concentration being either 100 μM or 10 μM. The compounds were diluted from stock solutions in DMSO and the final DMSO concentration of the test compounds on cells was 0.1%. After 24 h of incubation with the test compounds the supernatant conditioned media was collected and the Aβ 40 levels were determined using a sandwich ELISA. The IC50 of the compound was calculated from the percent of control or percent inhibition of Aβ 40 as a function of the concentration of the test compound.
The sandwich ELISA to detect Aβ 40 was performed in 96 well microtiter plates, which were pre-treated with goat anti-rabbit IgG (Pierce). The capture and detecting antibody pair that were used to detect Aβ 40 from cell supernatants were affinity purified pAb40 (Biosource) and biotinylated 6E10 (Signet Labs Inc.), respectively. The optimal concentration for the pAb40 antibody was 3 μg/ml in Superblock/TBS (Pierce) that was supplemented with 0.05% Tween 20 (Sigma).
Cellular supernatants were incubated with the capture antibody for 3 h at 4° C., followed by 3 wash steps in TBS-tween (0.05%). The detecting antibody incubation was for 2 h at 4° C., again followed by the wash steps as described previously. The final readout of the ELISA is Time-Resolved Fluorescence (counts per minute) using Delfia reagents Streptavidin-Europium and Enhancement solutions (Perkin Elmer) and the Victor 2 multilabel counter (Perkin Elmer).

[4] = system: Abeta 40; assay: In vivo inhibition of beta-secretase: Abeta 40 reduction in CSF and brain of the rat; details: 10 mpk (unless otherwise noted), after 4 hrs
[5] = average IC50, enzyme assay (Table II)
[6] = average IC50, cell assay (Table II)
[7] = Homo sapiens, HEK293, average IC50, HEK cell assay

Sequence of Cathepsin D (Cat D) (P07339 65-412, species assumed): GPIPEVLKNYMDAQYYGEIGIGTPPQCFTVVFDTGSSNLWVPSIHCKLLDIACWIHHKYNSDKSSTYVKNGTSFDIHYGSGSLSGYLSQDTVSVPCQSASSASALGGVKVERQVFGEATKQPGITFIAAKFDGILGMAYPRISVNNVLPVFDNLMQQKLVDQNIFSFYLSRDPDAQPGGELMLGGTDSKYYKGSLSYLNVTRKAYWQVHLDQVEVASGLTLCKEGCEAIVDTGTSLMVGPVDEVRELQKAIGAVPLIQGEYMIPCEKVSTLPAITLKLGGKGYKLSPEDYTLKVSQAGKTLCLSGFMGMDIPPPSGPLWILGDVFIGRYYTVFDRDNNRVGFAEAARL
Sequence of Beta Secretase enzyme (BACE1) (P56817 46-501): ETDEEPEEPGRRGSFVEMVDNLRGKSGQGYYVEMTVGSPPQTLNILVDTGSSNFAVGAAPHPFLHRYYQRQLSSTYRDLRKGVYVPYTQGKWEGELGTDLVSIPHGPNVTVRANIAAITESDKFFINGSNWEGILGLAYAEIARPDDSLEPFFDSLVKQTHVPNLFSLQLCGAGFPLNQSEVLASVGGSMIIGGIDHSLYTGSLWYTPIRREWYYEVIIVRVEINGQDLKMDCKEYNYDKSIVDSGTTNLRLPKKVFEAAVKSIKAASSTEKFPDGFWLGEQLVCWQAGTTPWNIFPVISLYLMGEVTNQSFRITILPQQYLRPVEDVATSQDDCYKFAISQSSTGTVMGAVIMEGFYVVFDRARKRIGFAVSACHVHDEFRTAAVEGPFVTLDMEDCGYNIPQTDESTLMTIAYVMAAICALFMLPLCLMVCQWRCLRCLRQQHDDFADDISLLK

Molecule: COc1cnc(C(=O)Nc2ccc(F)c([C@@]3(C(F)(F)F)CS(=O)(=O)C(C)(C)C(N)=N3)c2)cn1 [Example 34, N-(3-((3R)-5-amino-6,6-dimethyl-1,1-dioxido-3-(trifluoromethyl)-3,6-dihydro-2H-1,4-thiazin-3-yl)-4-fluorophenyl)-5-methoxy-2-pyrazinecarboxamide]
IC50 [1]: 883 nM
IC50 [2]: > 400000 nM
IC50 ([3]; Homo sapiens, HEK293, Aβ40 in conditioned medium after 24 h incubation): > 10000 nM

Molecule: COc1cnc(C(=O)Nc2cc([C@@]3(C)CS(=O)(=O)C(C)(C)C(N)=N3)c(F)cn2)cn1 [Example 142, (S)—N-(4-(5-amino-3,6,6-trimethyl-1,1-dioxido-3,6-dihydro-2H-1,4-thiazin-3-yl)-5-fluoropyridin-2-yl)-5-methoxypyrazine-2-carboxamide]
IC50 ([1]; average IC50): 10000 nM
IC50 [2]: > 400000 nM
IC50 ([3]; Homo sapiens, HEK293, average IC50): 4360 nM

Molecule: COc1cnc(C(=O)Nc2cc([C@]3(C)CS(=O)(=O)C(C)(C)C(N)=N3)c(F)cn2)cn1 [Example 143, (R)—N-(4-(5-amino-3,6,6-trimethyl-1,1-dioxido-3,6-dihydro-2H-1,4-thiazin-3-yl)-5-fluoropyridin-2-yl)-5-methoxypyrazine-2-carboxamide]
IC50 [1, 5]: 115 nM
IC50 ([2]; Table II): 221000 nM
IC50 ([3]; Homo sapiens, HEK293, average IC50, cell assay (Table II)): 462 nM

Molecule: Cc1ccc(Oc2ccc(F)c([C@]3(C)CS(=O)(=O)C(C)(C)C(N)=N3)c2)nc1 [Example 265, (5R)-5-(2-fluoro-5-((5-methyl-2-pyridinyl)oxy)phenyl)-2,2,5-3-amine 1,1-dioxide trimethyl-5,6-dihydro-2H-1,4-thiazin-3-amine 1,1-dioxide]
IC50 ([3]; average IC50): 804 nM

Molecule: Cc1cc(C(F)F)cnc1C(=O)Nc1ccc(F)c([C@]2(C)CS(=O)(=O)[C@]3(C[C@@H](F)C3)C(N)=N2)c1 [Example 338, N-(3-((2S,4s,7R)-9-amino-2-fluoro-7-methyl-5,5-dioxido-5-thia-8-azaspiro[3.5]non-8-en-7-yl)-4-fluorophenyl)-5-(diffuoromethyl)-3-methyl-2-pyridinecarboxamide]
IC50 [1, 5]: 2.94 nM
IC50 ([2]; Table II): 59000 nM
IC50 [3, 6]: 10.8 nM

Molecule: CC1(C)C(N)=N[C@](C)(c2cc(NC(=O)c3cc4ccccc4cn3)ccc2F)CS1(=O)=O [Example 343]
IC50 [3, 6]: 10.7 nM

Molecule: N-(3-((4aR,7aR)-3-amino-2,2-dimethyl-1,1-dioxido-7,7a-dihydro-2H-furo[3,4-b][1,4]thiazin-4a(5H)-yl)-4-fluorophenyl)-5-(difluoromethoxy)-3-methyl-2-pyridinecarboxamide,N-(3-((4aS,7aS)-3-amino-2,2-dimethyl-1,1-dioxido-7,7a-dihydro-2H-furo[3,4-b][1,4]thiazin-4a(5H)-yl)-4-fluorophenyl)-5-(difluoromethoxy)-3-methyl-2-pyridinecarboxamide [Example 413]
IC50 ([1]; average IC50): 2.65 nM
IC50 [2]: 111000 nM
IC50 ([3]; average IC50): 10.3 nM

Molecule: N-(3-((4aR,7aS)-3-amino-2,2-dimethyl-1,1-dioxido-7,7a-dihydro-2H-furo[3,4-b][1,4]thiazin-4a(5H)-yl)-4-fluorophenyl)-3-chloro-1,7-naphthyridin-8-amine,N-(3-((4aS,7aR)-3-amino-2,2-dimethyl-1,1-dioxido-7,7a-dihydro-2H-furo[3,4-b][1,4]thiazin-4a(5H)-yl)-4-fluorophenyl)-3-chloro-1,7-naphthyridin-8-amine [Example 429]
IC50 ([1]; average IC50, enzyme assay): 4.6 nM
IC50 [2]: 131000 nM
IC50 ([3]; average IC50, cell assay): 157 nM

Molecule: N-(3-((4aR,7aS)-3-amino-2,2-dimethyl-1,1-dioxido-7,7a-dihydro-2H-furo[3,4-b][1,4]thiazin-4a(5H)-yl)-4-fluorophenyl)-5-chloro-2-pyridinecarboxamide,N-(3-((4aS,7aR)-3-amino-2,2-dimethyl-1,1-dioxido-7,7a-dihydro-2H-furo[3,4-b][1,4]thiazin-4a(5H)-yl)-4-fluorophenyl)-5-chloro-2-pyridinecarboxamide [Example 426]
IC50 ([1]; average IC50, enzyme assay): 1.5 nM
IC50 [2]: 170000 nM
IC50 ([3]; average IC50, cell assay): 13.6 nM

Further lines, with some results ahead:

IC50 ([3]; average IC50): 23.9 nM
Molecule: CC1(C)C(N)=N[C@](C)(c2cc(Nc3ncnc4cc(C#N)cnc34)cnc2F)CS1(=O)=O [Example 384]

IC50 ([3]; average IC50): 2530 nM
Molecule: CC1(C)C(N)=N[C@](C)(c2cc(Nc3ccc4c(c3)OC(F)(F)O4)cnc2F)CS1(=O)=O [Example 414, (5R)-5-(5-((2,2-difluoro-1,3-benzodioxo1-5-yl)amino)-2-fluoro-3-pyridinyl)-2,2,5-trimethyl-5,6-dihydro-2H-1,4-thiazin-3-amine 1,1-dioxide]

IC50 ([1]; average IC50, enzyme assay): 4.1 nM
IC50 ([3]; average IC50, cell assay): 11.7 nM
Molecule: COc1cnc(C(=O)Nc2ccc(F)c([C@]34COC[C@H]3S(=O)(=O)C(C)(C)C(N)=N4)c2)c(C)c1 [Example 430, N-(3-((4aS,7aS)-3-amino-2,2-dimethyl-1,1-dioxido-7,7a-dihydro-2H-furo[3,4-13][1,4]thiazin-4a(5H)-yl)-4-fluorophenyl)-5-methoxy-3-methyl-2-pyridinecarboxamide]
% reduction of rat CSF levels at 10 pmk ([4]; rat CSF): 31%
% reduction of rat brain levels at 10 mpk ([4]; rat brain): 1%

IC50 ([3]; average IC50, cell assay): 28.5 nM
Molecule: CC1(C)C(N)=N[C@](CF)(c2cc(Nc3nccc4cc(Cl)cnc34)ccc2F)CS1(=O)=O [Example 448, N-(3-((3S)-5-amino-3-(fluoromethyl)-6,6-dimethyl-1,1-dioxido-3,6-dihydro-2H-1,4-thiazn-3-yl)-4-fluorophenyl)-3-chloro-1,7-naphthyridin-8-amine]

IC50 ([1]; average IC50, enzyme assay): 4 nM
IC50 ([2]; Cathepsin D FRET assay): 466000 nM
IC50 [3, 7]: 34.9 nM
Molecule: CO[C@H]1C[C@]2(C1)C(N)=N[C@](C)(c1cc(NC(=O)c3ncc(Cl)cc3C)ccc1F)CS2(=O)=O [Example 460, N-(3-((2R,4r,7R)-9-amino-2-methoxy-7-methyl-5,5-dioxido-5-thia-8-azaspiro[3.5]non-8-en-7-yl)-4-fluorophenyl)-5-chloro-3-methylpicolinamide]

IC50 ([1]; average IC50, enzyme assay): 15.7 nM
IC50 ([2]; Cathepsin D FRET assay): 399000 nM
IC50 [3, 7]: 28 nM
Molecule: COc1cnc(C(=O)Nc2ccc(F)c([C@]3(C)CS(=O)(=O)[C@]4(C[C@H](OC)C4)C(N)=N3)c2)c(C)c1 [Example 461, N-(3-((2R,4r,7R)-9-amino-2-methoxy-7-methyl-5,5-dioxido-5-thia-8-azaspiro[3.5]non-8-en-7-yl)-4-fluorophenyl)-5-methoxy-3-methylpicolinamide]

IC50 ([1]; average IC50, enzyme assay): 3.2 nM
IC50 ([2]; Cathepsin D FRET assay): 60100 nM
IC50 [3, 7]: 10.4 nM
Molecule: Cc1c(C(=O)Nc2ccc(F)c([C@@]3(C)N=C(N)C4(CC4)S(=O)(=O)[C@H]3F)c2)nc2ccc(Cl)cn12 [Example 462, N-(3-((5R,6R)-8-amino-5-fluoro-6-methyl-4,4-dioxido-4-thia-7-azaspiro[2.5]oct-7-en-6-yl)-4-fluorophenyl)-6-chloro-3-methylimidazo[1,2-a]pyridine-2-carboxamide]

IC50 ([1]; average IC50, enzyme assay): 4.6 nM
IC50 ([2]; Cathepsin D FRET assay): 76500 nM
IC50 [3, 7]: 13.2 nM
Molecule: COc1cnc(C(=O)Nc2ccc(F)c([C@]3(C)CS(=O)(=O)[C@]4(C[C@@H](F)C4)C(N)=N3)c2)c(C)c1 [Example 463, N-(3-((2S,4s,7R)-9-amino-2-fluoro-7-methyl-5,5-dioxido-5-thia-8-azaspiro[3.5]non-8-en-7-yl)-4-fluorophenyl)-5-methoxy-3-methylpicolinamide]

IC50 ([1]; average IC50, enzyme assay): 4 nM
IC50 ([2]; Cathepsin D FRET assay): 67400 nM
IC50 [3, 7]: 6 nM
Molecule: Cc1c(C(=O)Nc2ccc(F)c([C@]3(C)CS(=O)(=O)[C@]4(C[C@@H](F)C4)C(N)=N3)c2)nc2ccc(Cl)cn12 [Example 464, N-(3-((2 S,4s,7R)-9-amino-2-fluoro-7-methyl-5,5-dioxido-5-thia-8-azaspiro[3.5]non-8-en-7-yl)-4-fluorophenyl)-6-chloro-3-methylimidazo[1,2-a]pyridine-2-carboxamide]
